# Target: T1, human GR (Homo sapiens, UniProt P04150)
# T1 sequence (P04150 1-777): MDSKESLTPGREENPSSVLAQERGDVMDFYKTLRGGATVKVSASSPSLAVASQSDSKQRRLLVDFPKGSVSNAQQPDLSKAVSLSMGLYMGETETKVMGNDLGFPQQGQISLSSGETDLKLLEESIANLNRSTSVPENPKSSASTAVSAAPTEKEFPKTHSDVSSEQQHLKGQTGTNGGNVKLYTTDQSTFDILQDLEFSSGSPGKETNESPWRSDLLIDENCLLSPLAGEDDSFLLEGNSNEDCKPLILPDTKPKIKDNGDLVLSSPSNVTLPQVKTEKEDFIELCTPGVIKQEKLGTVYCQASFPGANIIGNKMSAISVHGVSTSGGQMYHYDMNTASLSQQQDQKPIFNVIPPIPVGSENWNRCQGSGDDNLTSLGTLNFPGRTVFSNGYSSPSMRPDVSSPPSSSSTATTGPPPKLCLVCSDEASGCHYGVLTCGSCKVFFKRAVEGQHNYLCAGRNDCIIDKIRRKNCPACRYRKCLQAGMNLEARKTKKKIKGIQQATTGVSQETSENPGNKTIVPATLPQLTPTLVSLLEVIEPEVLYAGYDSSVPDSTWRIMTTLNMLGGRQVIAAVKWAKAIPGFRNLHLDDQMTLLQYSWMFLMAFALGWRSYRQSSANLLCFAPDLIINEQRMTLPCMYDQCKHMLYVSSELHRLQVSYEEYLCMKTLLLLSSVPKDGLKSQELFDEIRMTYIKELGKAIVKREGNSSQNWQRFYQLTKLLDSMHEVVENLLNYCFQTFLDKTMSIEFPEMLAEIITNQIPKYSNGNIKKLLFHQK
# Assay: Transrepression Assay (GITAR), TNFα-β-lactamase reporter gene in U937 cells
# Format: cell-based
# Parameters: U937 cells contain an endogenous glucocorticoid receptor (GR); endogenous in cells; host or cells: U937 cells stably transfected with the TNF-α promoter/β-lactamase reporter only
# Conditions: U-937; 100 nM dexamethasone = 100% activity; read-out: maximal activity in the transrepression assay
# Method in brief: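 Reporter readout used CCF2-AM loading for 70–90 min at room temperature after overnight (~18 h, 37 °C) PMA (5 ng/ml final) and LPS (100 ng/ml final) stimulation of compound-treated (30–45 min) TNFα-β-lactamase U937 cells expressing native GR. Activity was normalised to 100 nM dexamethasone repression.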
row,Structure (SMILES),Emax
1,"C[C@]12Cc3cnn(-c4ccc(F)cc4)c3C=C1CC[C@@]2(O)CCc1ccccc1CNCC(F)(F)F [Example 104, (4αS,5R)-1-(4-fluorophenyl)-4α-methyl-5-[2-[2-{[(2,2,2-trifluoroethyl)amino]methyl}phenyl)ethyl]-1,4,4α,5,6,7-hexahydrocyclopenta[f]indazol-5-ol]",5 to 100%
2,"CC(=O)NCc1ccccc1CC[C@]1(O)CCC2=Cc3c(cnn3-c3ccc(F)cc3)C[C@@]21C [Example 105, N-(2-{2-[(4αS,5R)-1-(4-fluorophenyl)-5-hydroxy-4α-methyl-1,4,4α,5,6,7-hexahydrocyclopenta[f]indazol-5-yl]ethyl}benzyl)acetamide]",5 to 100%
3,"CCNC(=O)Cc1ccccc1CC[C@]1(O)CCC2=Cc3c(cnn3-c3ccc(F)cc3)C[C@@]21C [Example 106, N-ethyl-2-(2-{2-[(4αS,5R)-1-(4-fluorophenyl)-5-hydroxy-4α-methyl-1,4,4α,5,6,7-hexahydrocyclopenta[f]indazol-5-yl]ethyl}phenyl)acetamide]",5 to 100%
4,"CN(C)C(=O)Cc1ccccc1CC[C@]1(O)CCC2=Cc3c(cnn3-c3ccc(F)cc3)C[C@@]21C [Example 108, 2-(2-{2-[(4αS,5R)-1-(4-fluorophenyl)-5-hydroxy-4α-methyl-1,4,4α,5,6,7-hexahydrocyclopenta[f]indazol-5-yl]ethyl}phenyl)-N,N-dimethylacetamide]",5 to 100%
5,"C[C@]12Cc3cnn(-c4ccc(F)cc4)c3C=C1CC[C@@]2(O)CCc1ccccc1CC(=O)NC1CC1 [Example 109, N-cyclopropyl-2-(2-{2-[(4αS,5R)-1-(4-fluorophenyl)-5-hydroxy-4α-methyl-1,4,4α,5,6,7-hexahydrocyclopenta[f]indazol-5-yl]ethyl}phenyl)acetamide]",5 to 100%
6,"C[C@]12Cc3cnn(-c4ccc(F)cc4)c3C=C1CC[C@@]2(O)CCc1cccc(F)c1N1CCC1=O [Example 110, 1-(2-fluoro-6-{2-[(4αS,5R)-1-(4-fluorophenyl)-5-hydroxy-4α-methyl-1,4,4α,5,6,7-hexahydrocyclopenta[f]indazol-5-yl]ethyl}phenyl)azetidin-2-one]",5 to 100%
7,"C[C@]12Cc3cnn(-c4ccc(F)cc4)c3C=C1CC[C@@]2(O)CCc1ccccc1N1CCCC1=O [Example 111, 1-(2-{2-[(4αS,5R)-1-(4-fluorophenyl)-5-hydroxy-4α-methyl-1,4,4α,5,6,7-hexahydrocyclopenta[f]indazol-5-yl]ethyl}phenyl)pyrrolidin-2-one]",5 to 100%
8,"C[C@]12Cc3cnn(-c4ccc(F)cc4)c3C=C1CC[C@@]2(O)CCc1cc(F)ccc1N [Example 112, (4αS,5R)-5-[2-(2-amino-5-fluorophenyl)ethyl]-1-(4-fluorophenyl)-4α-methyl-1,4,4α,5,6,7-hexahydrocyclopenta[f]indazol-5-ol]",5 to 100%
9,"C[C@]12Cc3cnn(-c4ccc(F)cc4)c3C=C1CC[C@@]2(O)CCc1ccccc1NS(C)(=O)=O [Example 115, N-(2-{2-[(4αS,5R)-1-(4-fluorophenyl)-5-hydroxy-4α-methyl-1,4,4α,5,6,7-hexahydrocyclopenta[f]indazol-5-yl]ethyl}phenyl)methanesulfonamide]",5 to 100%
10,"C[C@]12Cc3cnn(-c4ccc(F)cc4)c3C=C1CC[C@@]2(O)CCc1cccc(F)c1NS(=O)(=O)CC(F)(F)F [Example 116, 2,2,2-trifluoro-N-(2-fluoro-6-{2-[(4αS,5R)-1-(4-fluorophenyl)-5-hydroxy-4α-methyl-1,4,4α,5,6,7-hexahydrocyclopenta[f]indazol-5-yl]ethyl}phenyl)ethanesulfonamide]",5 to 100%
11,"CN(C)S(=O)(=O)Nc1ccc(F)cc1CC[C@]1(O)CCC2=Cc3c(cnn3-c3ccc(F)cc3)C[C@@]21C [Example 117, N′-(4-fluoro-2-{2-[(4αS,5R)-1-(4-fluorophenyl)-5-hydroxy-4α-methyl-1,4,4α,5,6,7-hexahydrocyclopenta[f]indazol-5-yl]ethyl}phenyl)-N,N-dimethylsulfamide]",5 to 100%
12,"C[C@]12Cc3cnn(-c4ccc(F)cc4)c3C=C1CC[C@@]2(O)CCc1ccccc1NS(=O)(=O)CC(F)(F)F [Example 118, 2,2,2-trifluoro-N-(2-{2-[(4αS,5R)-1-(4-fluorophenyl)-5-hydroxy-4α-methyl-1,4,4α,5,6,7-hexahydrocyclopenta[f]indazol-5-yl]ethyl}phenyl)ethanesulfonamide]",5 to 100%
13,"C[C@]12Cc3cnn(-c4ccc(F)cc4)c3C=C1CC[C@@]2(O)CCc1cc(F)ccc1NS(=O)(=O)CC(F)(F)F [Example 119, 2,2,2-trifluoro-N-(4-fluoro-2-{2-[(4αS,5R)-1-(4-fluorophenyl)-5-hydroxy-4α-methyl-1,4,4α,5,6,7-hexahydrocyclopenta[f]indazol-5-yl]ethyl}phenyl)ethanesulfonamide]",5 to 100%
14,"CC(C)S(=O)(=O)c1ccccc1CC[C@]1(O)CCC2=Cc3c(cnn3-c3ccc(F)cc3)C[C@@]21C [Example 120, (4αS,5R)-1-(4-fluorophenyl)-5-{2-[2-(isopropylsulfonyl)phenyl]ethyl}-4α-methyl-1,4,4α,5,6,7-hexahydrocyclopenta[f]indazol-5-ol]",5 to 100%
15,"COC(=O)Nc1ccccc1CC[C@]1(O)CCC2=Cc3c(cnn3-c3ccc(F)cc3)C[C@@]21C [Example 121, methyl (2-{2-[(4αS,5R)-1-(4-fluorophenyl)-5-hydroxy-4α-methyl-1,4,4α,5,6,7-hexahydrocyclopenta[f]indazol-5-yl]ethyl}phenyl)carbamate]",5 to 100%
16,"CCOC(=O)Nc1c(F)cccc1CC[C@]1(O)CCC2=Cc3c(cnn3-c3ccc(F)cc3)C[C@@]21C [Example 122, ethyl (2-fluoro-6-{2-[(4αS,5R)-1-(4-fluorophenyl)-5-hydroxy-4α-methyl-1,4,4α,5,6,7-hexahydrocyclopenta[f]indazol-5-yl]ethyl}phenyl)carbamate]",5 to 100%
17,"COC(=O)Nc1c(F)cccc1CC[C@]1(O)CCC2=Cc3c(cnn3-c3ccc(F)cc3)C[C@@]21C [Example 123, methyl (2-fluoro-6-{2-[(4αS,5R)-1-(4-fluorophenyl)-5-hydroxy-4α-methyl-1,4,4α,5,6,7-hexahydrocyclopenta[f]indazol-5-yl]ethyl}phenyl)carbamate]",5 to 100%
18,"COC(=O)Nc1ccc(F)cc1CC[C@]1(O)CCC2=Cc3c(cnn3-c3ccc(F)cc3)C[C@@]21C [Example 124, methyl (4-fluoro-6-{2-[(4αS,5R)-1-(4-fluorophenyl)-5-hydroxy-4α-methyl-1,4,4α,5,6,7-hexahydrocyclopenta[f]indazol-5-yl]ethyl}phenyl)carbamate]",5 to 100%
19,"CCOC(=O)Nc1ccc(F)cc1CC[C@]1(O)CCC2=Cc3c(cnn3-c3ccc(F)cc3)C[C@@]21C [Example 125, ethyl (4-fluoro-2-{2-[(4αS,5R)-1-(4-fluorophenyl)-5-hydroxy-4α-methyl-1,4,4α,5,6,7-hexahydrocyclopenta[f]indazol-5-yl]ethyl}phenyl)carbamate]",5 to 100%
20,"C[C@]12Cc3cnn(-c4ccc(F)cc4)c3C=C1CC[C@@]2(O)CCc1cccc(F)c1NC(=O)C(F)(F)F [Example 126, 2,2,2-trifluoro-N-(2-fluoro-6-{2-[(4αS,5R)-1-(4-fluorophenyl)-5-hydroxy-4α-methyl-1,4,4α,5,6,7-hexahydrocyclopenta[f]indazol-5-yl]ethyl}phenyl)acetamide]",5 to 100%
21,"C[C@]12Cc3cnn(-c4ccc(F)cc4)c3C=C1CC[C@@]2(O)CCc1ccccc1NC(=O)C(F)(F)F [Example 127, 2,2,2-trifluoro-N-(2-{2-[(4αS,5R)-1-(4-fluorophenyl)-5-hydroxy-4α-methyl-1,4,4α,5,6,7-hexahydrocyclopenta[f]indazol-5-yl]ethyl}phenyl)acetamide]",5 to 100%
22,"CC(=O)Nc1c(F)cccc1CC[C@]1(O)CCC2=Cc3c(cnn3-c3ccc(F)cc3)C[C@@]21C [Example 128, N-(2-fluoro-6-{2-[(4αS,5R)-1-(4-fluorophenyl)-5-hydroxy-4α-methyl-1,4,4α,5,6,7-hexahydrocyclopenta[f]indazol-5-yl]ethyl}phenyl)acetamide]",5 to 100%
23,"CC(C)NC(=O)Nc1ccccc1CC[C@]1(O)CCC2=Cc3c(cnn3-c3ccc(F)cc3)C[C@@]21C [Example 129, N-(2-{2-[(4αS,5R)-1-(4-fluorophenyl)-5-hydroxy-4α-methyl-1,4,4α,5,6,7-hexahydrocyclopenta[f]indazol-5-yl]ethyl}phenyl)-N′-isopropylurea]",5 to 100%
24,"CC(C)NC(=O)Nc1c(F)cccc1CC[C@]1(O)CCC2=Cc3c(cnn3-c3ccc(F)cc3)C[C@@]21C [Example 130, N-(2-fluoro-6-{2-[(4αS,5R)-1-(4-fluorophenyl)-5-hydroxy-4α-methyl-1,4,4α,5,6,7-hexahydrocyclopenta[f]indazol-5-yl]ethyl}phenyl)-N′-isopropylurea]",5 to 100%

# Reference: patent US8119681B2, “2-[1-phenyl-5-hydroxy or methoxy-4alpha-methyl-hexahydrocyclopenta [ƒ]indazole-5-YL]ethyl phenyl derivatives as glucocorticoid receptor ligands” (Merck Sharp & Dohme Corp., priority 2006, dated 2012)
